According to ChEMBL document CHEMBL1157539, “Thousands of chemical starting points for antimalarial lead identification” (Nature, 2010):

The compounds below were run on Plasmodium falciparum (assay: GSK_TCMDC: Inhibition of Plasmodium falciparum 3D7 in whole erythrocytes, using parasite LDH activity as an index of growth.). Details: Plasmodium falciparum, 3D7.
Format: functional, organism-based

Structure (SMILES)	XC50 [nM]
O=C(Cn1c(CCc2cccc(F)c2F)cc(=O)c2ccccc21)N(Cc1ccc(-c2ccc(C(F)(F)F)cc2)cc1)C1CCN(CCO)CC1	1320
CC(C)N1CCC(N(Cc2ccc(-c3ccc(C(F)(F)F)cc3)cc2)C(=O)Cn2c(CCc3cccc(F)c3F)cc(=O)c3cn(C)nc32)CC1	1170
O=C(/C=C/c1ccc(Cl)c(Cl)c1)NCCCCCN1CCC(c2c[nH]c3cc(O)ccc23)CC1	745
c1ccc(Oc2ccc(Nc3ccnc4cc(-c5cccc(CN6CCOCC6)c5)ccc34)cc2)cc1	336
Cc1cc(-c2cccc(CNC3CCN(C)CC3)c2)ccc1S(=O)(=O)NC1CCC1	731
Cc1cc(NC(=O)c2cccs2)ccc1OC1CCN(Cc2ccc(C#N)cc2)C1 (stereo unspecified)	847
O=S(=O)(NCCN1CCCC1)c1cccc(-c2ccc(CNCc3ccccc3)cc2)c1	1000
CCN(CC)CCCCCNc1c2ccc(Cl)cc2nc2ccc(OC)cc12	50.6
CCN(CC)c1nc(-c2ccccc2)cc(-c2ccccc2)c1C#N	450
Cc1cccc(OCC2CCN(c3ncc(C(=O)NC4CC4)cc3Cl)CC2)c1	1330
O=[N+]([O-])c1cccc(CNCC2CCN(Cc3ccc(O)cc3)CC2)c1	666
CN(C)CCN(Cc1ccccc1)c1ccc([N+](=O)[O-])cc1C(F)(F)F	776
C=Cc1c(C2CCN(CCCCNC(=O)c3ccc(-c4ccc(C#N)cc4)cc3)CC2)ccc2c1CCCC2	878
OC(CNc1ccnc(Nc2ccc(Cl)cc2)n1)c1ccccc1C(F)(F)F (stereo unspecified)	788
COc1ccc(CCN(C)CCCCNC(=O)c2ccc(NC(=O)c3ccc(Cl)cc3)cc2)c(OC)c1	921
Cc1ccc(-c2nnc(Nc3ccc(CC(N)=O)cc3)c3ccccc23)cc1S(=O)(=O)NCC1CCCO1 (stereo unspecified)	791
O=C(NC1CCN(CC2(c3ccc(Cl)cc3)CCC2)CC1)c1cscn1	535
CCC(C)CN1CCC(N(C)c2cc(NC(=O)c3ccc(F)cc3)ccn2)CC1 (stereo unspecified)	977
Fc1ccc2cc(C=Cc3ccncc3)[nH]c2c1	617
COc1ccc(CCN(C)CCOc2ccc(NC(=O)c3ccc([N+](=O)[O-])c4c(=O)c5ccccc5[nH]c34)cc2)cc1OC	927
CCC(C)Oc1ccc(CCCON2C(N)=NC(N)=NC2(C)C)cc1 (stereo unspecified)	3.2
COC(=O)c1cccc(CNCc2ccc(-c3ccc(-c4nc5cc(C(F)(F)F)ccc5[nH]4)cc3)cc2)c1	298
Cc1ccc(NC(=N)Nc2ncccc2OCc2c(F)cccc2Cl)cc1	1190
COc1ccc(Nc2nccc(N3CCC(NC(=O)Nc4cccc(OC)c4)C3)n2)cc1 (stereo unspecified)	424

Structure (SMILES)	XC50 [nM]
CC(C)c1ccc(C=CC(=O)NC2CCC(CN3CCC(c4c[nH]c5ccccc45)CC3)CC2)cc1 (stereo unspecified)	807
O=S(=O)(NC1CCC(CN2CCC(c3c[nH]c4ccccc34)CC2)CC1)c1ccc(Cl)c(Cl)c1 (stereo unspecified)	817
Cn1cc(CN2CCCC(COC(c3ccc(F)cc3)c3ccc(F)cc3)C2)cn1 (stereo unspecified)	571
Cc1ccc(S(C)(=O)=O)cc1/C=C/C(=O)O	868
CC(C)CNCc1cccc(-c2cccc(CN(CCN(C)C)C(=O)NCCc3ccccc3)c2)c1	693
Nc1nc(N)c2cc(NS(=O)(=O)c3ccc(-c4ccccc4)cc3)ccc2n1	699
COc1cc2nc(Nc3ccc(N4CCOCC4)cc3)nc(N)c2cc1OC	871
Oc1ccc(CCNc2nc(NCc3ccccc3-c3ccccc3)nc(N3CCCNCC3)n2)cc1	877
Oc1c(CNC2CCCCC2)cc(Cl)c2ccccc12	838
O=C1CCCN1CCCNCc1cccc(-c2cccc(-c3nc4cc(F)ccc4[nH]3)c2)c1	598
COC(=O)c1cccc(C#CCCOCCCCCCNC[C@H](O)c2cc(Cl)c(N)c(Cl)c2)c1	771
Fc1ccc2[nH]c(-c3ccc(-c4cccc(CN5CCN(CCN6CCOCC6)CC5)c4)cc3)nc2c1	145
CCN1C(=O)N(CCC(C)C)C2(CCN(Cc3ccc(OC)cc3O)CC2)C1=O	868
CCCCc1cc(Cc2cnc(N)nc2N)cc(OC)c1OC	1040
COc1ccc2ccccc2c1C=NN=c1cc(C)[nH]c2cc(C(F)(F)F)ccc12	1040
CCC(C)c1ccc(NC(=O)Nc2ccc(Cn3ncc(N4CCCNCC4)c(Cl)c3=O)cc2)cc1 (stereo unspecified)	1030
COc1ccc2c(OC)c(CNCCCCCCNCc3ccc4cc(OC)ccc4c3OC)ccc2c1	920
Cc1cc(-c2cccc(CNCc3ccccc3)c2)ccc1S(=O)(=O)NCCN1CCCC1	732
CCCCCCN1CCN(Cc2cccc(NC(=O)c3cccc(OCC)c3)c2)CC1	1110
CCCCC(=O)NC(c1cccs1)c1cc(Cl)c2cccnc2c1O (stereo unspecified)	380
O=C(/C=C/c1ccc(Cl)c(Cl)c1)NCCCCCN1CCC(NC(=O)NC2CCCC2)CC1	631
COCC(C)n1c(SCC(=O)Nc2cc(C(F)(F)F)ccc2Cl)nc2ccccc2c1=O (stereo unspecified)	130
COc1cc(Cc2cnc(N)nc2N)cc(OCCCCCCN)c1OC	190
COc1ccccc1-c1ccc(C(=O)NCC2CCCN(Cc3cccc(C(F)(F)F)c3)C2)s1 (stereo unspecified)	1540

Structure (SMILES)	XC50 [nM]
CC(=O)Nc1ccc(C(=O)Nc2cccc(-c3ccc(-c4nc5cc(F)ccc5[nH]4)cc3)c2)cn1	174
O=c1c2ccccc2[nH]c2cc(Cl)ccc12	873
Cc1cc(NC(=O)[C@H](CC2CCCCC2)Nc2ccc(C#N)c3ccccc23)ccc1F	684
CNC(=O)Cc1ccc(C(=O)Nc2cccc(-c3cccc(-c4nc5cccc(C)c5[nH]4)c3)c2)cc1	530
Oc1ccc(CCNc2nc(NCCCOc3ccccc3-c3cccc(C(F)(F)F)c3)nc(N3CCNCC3)n2)cc1	882
O=C(Nc1cccc(C(F)(F)F)c1)Nc1ccc(Cl)c(C(F)(F)F)c1	890
CC(=O)N(C)C1CCN(Cc2cccc(-c3ccc(-c4nc5cc(C(F)(F)F)ccc5[nH]4)cc3)c2)C1 (stereo unspecified)	563
N=C(N)Nc1nc(-c2ccc(NC(=O)Nc3cccc(-c4csc(NC(=N)N)n4)c3)cc2)cs1	1010
O=C(NCCCN1CCOCC1)c1csc(Nc2ccc(Cl)c(Cl)c2)n1	919
Cc1c(Cl)cccc1S(=O)(=O)Nc1ccc(CCN2CCC(N)CC2)cc1	1460
COC(=O)Cn1c(C2CCN(CC3CCC(NC(=O)/C=C/c4ccc(Cl)c(Cl)c4)CC3)CC2)nc2ccccc21 (stereo unspecified)	1140
CCCc1cc(Cc2cnc(N)nc2N)cc(OCCCCCC(=O)O)c1OC	164
N=C(NCc1ccc(O)cc1)Nc1nc(-c2ccc(OCCCn3ccnc3)cc2)cs1	749
O=C(NCc1ccccc1)Nc1ccc(-c2cccc(-c3nc4cc(C(F)(F)F)ccc4[nH]3)c2)cc1	662
Cc1cccc2nc(-c3cccc(-c4ccc(NC(=O)Nc5ccc6c(c5)OCO6)cc4)c3)[nH]c12	145
O=C(Nc1ccccc1)Nc1cccc(-c2cccc(-c3nc4cc(F)ccc4[nH]3)c2)c1	176
CCOc1cc(C(=O)N[C@@H](Cc2ccccc2)[C@H](O)CNCc2cc(OC)cc(OC)c2)cc(N2CCCS2(=O)=O)c1	748
OC(c1ccccc1)C1CN(Cc2ccccc2)CCC1(O)c1ccccc1 (stereo unspecified)	846
COCCN1CCN(Cc2cccc(-c3ccc(-c4nc5ccccc5[nH]4)cc3)c2)CC1	761
CCOC(=O)c1cnc2c(OC)cc(OC)c(Cl)c2c1Nc1cccc(C)c1C	310
O=C(Nc1ccc(-c2cccc(-c3nc4cc(C(F)(F)F)ccc4[nH]3)c2)cc1)Nc1ccc(F)c(F)c1F	706
COc1ccccc1C1CCN(CCCCNC(=O)c2ccc(NC(=O)c3ccc(Cl)cc3)cc2)CC1	244
CCCCCCCCn1c2c(c(=N)c3c1CCC3)CCC2	222
